Results from PubChem BioAssay AID248 (DTP/NCI, 2004).
Where “and” joins values, the source holds several entries; their conditions need not be identical. Equal values may be shown once. Toxic doses and inconclusive results are not listed. Rule as the data show it: active = T/C of 150% or more; inactive = T/C below 125%.

Tested on: L1210 leukemia ip in BDF1 mice, survival T/C
Test: NCI In Vivo Anticancer Drug Screen. Data for tumor model L1210 Leukemia (intraperitoneal) in B6D2F1 (BDF1) mice
Settings: endpoint: mean survival time, higher = longer survival
Outline: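 Mice bearing the transplanted tumor received compound or vehicle. Survival of the treated group was divided by that of the vehicle-treated control group to give the ratio.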

[1] = dose: 100.0 mg/kg/injection, schedule: Q04DX003 (ip), vehicle: saline with Tween-80
[2] = dose: 200.0 mg/kg/injection, schedule: Q04DX003 (ip), vehicle: saline with Tween-80
[3] = dose: 100.0 mg/kg/injection, schedule: Q04DX002 (ip), vehicle: Klucel (hydroxypropylcellulose) (HPC)
[4] = dose: 200.0 mg/kg/injection, schedule: Q04DX002 (ip), vehicle: Klucel (hydroxypropylcellulose) (HPC)
[5] = dose: 100.0 mg/kg/injection, schedule: Q01DX001 (ip), vehicle: saline
[6] = dose: 100.0 mg/kg/injection, schedule: Q01DX001 (ip), vehicle: Klucel (hydroxypropylcellulose) (HPC)
[7] = dose: 200.0 mg/kg/injection, schedule: Q01DX001 (ip), vehicle: Klucel (hydroxypropylcellulose) (HPC)
[8] = dose: 25.0 mg/kg/injection, schedule: Q01DX009 (ip), vehicle: saline
[9] = dose: 50.0 mg/kg/injection, schedule: Q01DX009 (ip), vehicle: saline
[10] = dose: 100.0 mg/kg/injection, schedule: Q04DX002 (ip), vehicle: saline with Tween-80
[11] = dose: 200.0 mg/kg/injection, schedule: Q04DX002 (ip), vehicle: saline with Tween-80
[12] = dose: 100.0 mg/kg/injection, schedule: Q04DX003 (ip), vehicle: saline
[13] = dose: 50.0 mg/kg/injection, schedule: Q01DX009 (ip), vehicle: saline with Tween-80
[14] = dose: 100.0 mg/kg/injection, schedule: Q01DX009 (ip), vehicle: saline with Tween-80
[15] = dose: 400.0 mg/kg/injection, schedule: Q04DX003 (ip), vehicle: saline with Tween-80
[16] = dose: 100.0 mg/kg/injection, schedule: Q04DX003 (ip), vehicle: Klucel (hydroxypropylcellulose) (HPC)
[17] = dose: 200.0 mg/kg/injection, schedule: Q04DX003 (ip), vehicle: Klucel (hydroxypropylcellulose) (HPC)
[18] = dose: 400.0 mg/kg/injection, schedule: Q04DX003 (ip), vehicle: Klucel (hydroxypropylcellulose) (HPC)
[19] = dose: 150.0 mg/kg/injection, schedule: Q01DX001 (ip), vehicle: saline

Measured: T/C

CC(=O)OC1C(NC(=O)OCc2ccccc2)CC(NC(=O)OCc2ccccc2)C(O)C1O (configuration not stated)
inactive: [1] 94 % of control | [2] 88 % of control

O=c1c2c(=O)c3ccccc3c(=O)c=2c(=O)c2ccccc12
inactive: [3] 93 % of control | [4] 89 % of control | dose: 400.0 mg/kg/injection, schedule: Q04DX002 (ip), vehicle: Klucel (hydroxypropylcellulose) (HPC) 89 % of control

Cc1cccc(NC(=O)CCc2ccc(Cl)cc2)n1
inactive: [5] 95 % of control

C=COCCCCCCCCCCCCCCCCCC
inactive: dose: 100.0 mg/kg/injection, schedule: Q01DX001 (ip), vehicle: other 95 % of control | dose: 200.0 mg/kg/injection, schedule: Q01DX001 (ip), vehicle: other 95 % of control | dose: 400.0 mg/kg/injection, schedule: Q01DX001 (ip), vehicle: other 96 % of control

Cc1ncc(CN2CSC(CCO)C2C)c(N)n1 (configuration not stated)
inactive: [6] 95 % of control | [7] 93 % of control | dose: 400.0 mg/kg/injection, schedule: Q01DX001 (ip), vehicle: Klucel (hydroxypropylcellulose) (HPC) 93 % of control

CN(C)CCC(CN=C(N)N)c1cccc2ccccc12 (configuration not stated)
inactive: dose: 12.5 mg/kg/injection, schedule: Q01DX009 (ip), vehicle: saline 100 % of control | [8] 100 % of control | dose: 25.0 mg/kg/injection, schedule: Q04DX002 (ip), vehicle: saline 93 % of control | [9] 101 % of control | dose: 50.0 mg/kg/injection, schedule: Q04DX002 (ip), vehicle: saline 97 % of control

CCCCCCCCCCCCCCCCCC(=O)[O][Sn]([CH2]CCC)([CH2]CCC)[O]C(=O)CCCCCCCCCCCCCCCCC
inactive: dose: 6.25 mg/kg/injection, schedule: Q04DX003 (ip), vehicle: other 100 % of control | dose: 12.5 mg/kg/injection, schedule: Q04DX003 (ip), vehicle: other 114 % of control | dose: 25.0 mg/kg/injection, schedule: Q04DX003 (ip), vehicle: other 101 % of control | dose: 50.0 mg/kg/injection, schedule: Q04DX003 (ip), vehicle: other 101 % of control

CC(=O)Oc1ccc([N+](=O)[O-])cc1
inactive: dose: 25.0 mg/kg/injection, schedule: Q04DX002 (ip), vehicle: Klucel (hydroxypropylcellulose) (HPC) 102 % of control | dose: 50.0 mg/kg/injection, schedule: Q04DX002 (ip), vehicle: Klucel (hydroxypropylcellulose) (HPC) 89 % of control | [3] 90 % of control | [4] 92 % of control and 96 % of control

C[N+](C)(C)Cc1cccc([N+](=O)[O-])c1
inactive: dose: 12.0 mg/kg/injection, schedule: Q01DX009 (ip), vehicle: saline 90 % of control | [8] 92 % of control | dose: 50.0 mg/kg/injection, schedule: Q01DX001 (ip), vehicle: saline 98 % of control | [9] 93 % of control

CCCCN1C(=O)N(c2ccc(OCC)cc2)C2N(CCCC)C1C(C)(C)C2(C)C (configuration not stated)
inactive: dose: 25.0 mg/kg/injection, schedule: Q04DX002 (ip), vehicle: saline with Tween-80 103 % of control | dose: 50.0 mg/kg/injection, schedule: Q04DX002 (ip), vehicle: saline with Tween-80 118 % of control | [10] 122 % of control

CN1CCN(C(=O)C2C(c3ccccc3)C2c2cccc(C(F)(F)F)c2)CC1 (configuration not stated)
inactive: [10] 103 % of control | [11] 98 % of control | dose: 400.0 mg/kg/injection, schedule: Q04DX002 (ip), vehicle: saline with Tween-80 92 % of control

CCCCCCCCS.[Ni]
inactive: dose: 6.0 mg/kg/injection, schedule: Q01DX009 (ip), vehicle: Klucel (hydroxypropylcellulose) (HPC) 100 % of control | dose: 12.0 mg/kg/injection, schedule: Q01DX009 (ip), vehicle: Klucel (hydroxypropylcellulose) (HPC) 92 % of control | dose: 25.0 mg/kg/injection, schedule: Q01DX009 (ip), vehicle: Klucel (hydroxypropylcellulose) (HPC) 92 % of control | [12] 102 % of control

CCCCn1c(O)c(C=N)c(=O)n(CCCC)c1=O
inactive: dose: 25.0 mg/kg/injection, schedule: Q01DX009 (ip), vehicle: saline with Tween-80 101 % of control | [13] 90 % of control | [14] 101 % of control and 86 % of control | [1] 89 % of control | [2] 94 % of control | [15] 89 % of control

Cc1ccccc1C[As](C)(=O)O
inactive: [6] 98 % of control | [7] 118 % of control

O=[N+]([O-])c1ccc(Cl)c(C(=S)N2CCCCC2)c1
inactive: [16] 99 % of control | [17] 96 % of control | [18] 96 % of control

Clc1ccc([As](c2ccc(Cl)cc2)c2ccc(Cl)cc2)cc1
inactive: [1] 100 % of control | [2] 90 % of control | [15] 101 % of control

O=C(O)[C@H]1CCCC[C@H]1C(=O)O
inactive: dose: 50.0 mg/kg/injection, schedule: Q04DX003 (ip), vehicle: Klucel (hydroxypropylcellulose) (HPC) 98 % of control | [16] 95 % of control | [17] 103 % of control and 106 % of control | [18] 100 % of control

CC1CS(=O)(=O)O1 (configuration not stated)
inactive: [10] 114 % of control | [11] 105 % of control

Cc1ccc(NC(=O)Oc2ccc(C(C)(C)C)cc2Br)cc1NC(=O)Oc1ccc(C(C)(C)C)cc1Br
inactive: dose: 100.0 mg/kg/injection, schedule: Q01DX009 (ip), vehicle: other 87 % of control | dose: 200.0 mg/kg/injection, schedule: Q01DX009 (ip), vehicle: other 100 % of control | dose: 400.0 mg/kg/injection, schedule: Q01DX009 (ip), vehicle: other 98 % of control

CCC(=O)O[C@H]1CC[C@H]2[C@@H]3[C@@H](C)CC4=CC(=O)CC[C@]4(C)[C@H]3CC[C@]12C
inactive: [14] 93 % of control | [1] 90 % of control | [2] 90 % of control | dose: 400.0 mg/kg/injection, schedule: Q01DX009 (ip), vehicle: saline with Tween-80 91 % of control | [15] 87 % of control

OC1(C#CC#CC2(O)CCCCC2)CCCCC1
inactive: [12] 92 % of control | dose: 200.0 mg/kg/injection, schedule: Q04DX003 (ip), vehicle: saline 98 % of control | dose: 400.0 mg/kg/injection, schedule: Q04DX003 (ip), vehicle: saline 93 % of control

O=C1C[C@@H]2OCC=C3C[N+]4([O-])CC[C@]56c7ccccc7N1[C@H]5[C@H]2[C@H]3C[C@@H]64 (some centres not stated)
inactive: [19] 106 % of control

CCCCCCN(/N=C\C(=O)O)C(N)=O
inactive: [13] 103 % of control | [14] 88 % of control | dose: 200.0 mg/kg/injection, schedule: Q01DX009 (ip), vehicle: saline with Tween-80 98 % of control

CCOP(=S)(NN=C1CCCCC1)OCC
inactive: [5] 104 % of control | dose: 200.0 mg/kg/injection, schedule: Q01DX001 (ip), vehicle: saline 101 % of control

O=C(O)C1CC(Br)C(Br)CC1C(=O)Nc1ccc(Cl)c(Cl)c1 (configuration not stated)
inactive: [3] 115 % of control | [4] 121 % of control

CC(=O)/C=C(\C)OC1CCCCC1
inactive: [1] 98 % of control | [2] 95 % of control | [15] 91 % of control

Cc1ccc(CC(O)(CC(O)(c2ccccc2)c2ccccc2)c2ccccc2)cc1C (configuration not stated)
inactive: dose: 75.0 mg/kg/injection, schedule: Q01DX001 (ip), vehicle: saline 92 % of control | dose: 75.0 mg/kg/injection, schedule: Q04DX003 (ip), vehicle: saline 94 % of control | [19] 92 % of control | dose: 150.0 mg/kg/injection, schedule: Q04DX003 (ip), vehicle: saline 91 % of control | dose: 300.0 mg/kg/injection, schedule: Q01DX001 (ip), vehicle: saline 90 % of control | dose: 300.0 mg/kg/injection, schedule: Q04DX003 (ip), vehicle: saline 94 % of control

C=CCNC(=O)/C=C/C(=O)O
inactive: dose: 100.0 mg/kg/injection, schedule: Q01DX009 (ip), vehicle: saline 95 % of control | dose: 200.0 mg/kg/injection, schedule: Q01DX009 (ip), vehicle: saline 93 % of control

CN(C)c1ccc(N=C(C#N)C(=O)c2ccccc2)cc1
inactive: [1] 95 % of control | [2] 95 % of control | [15] 102 % of control
